Assay results from patent US11040028B2, “Penicinotam derivative, preparation method and use thereof” (OCEAN UNIVERSITY OF CHINA, priority 2017, dated 2021).

How the values were obtained:
Assay type in all cases: cell-based
[1] = tested on: human embryonic lung fibroblast IMR-90; assay: Anti-fibrosis activity test: inhibition of proliferation of human embryonic lung fibroblast IMR-90 (CCK-8)
In short: (§1)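 Cells seeded at 2×10^4 cells/mL, adhered 24 h, then exposed to compound concentrations in triplicate for 48 h at 37° C, 5% CO2. CCK-8 added for 2 h, absorbance at 450 nm; inhibition = (1−Ai/Ao)×100% versus blank control, IC50 calculated.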

[2] = tested on: mouse macrophages (RAW264.7); assay: Lipopolysaccharide-induced NO secretion in macrophages (Griess); settings: Mus musculus, RAW264.7, 24 h, RAW264.7, LPS 1 μg/ml, a/b isomers given as first/second symbol, read-out: IC50 (μM), inhibition of lipopolysaccharide-induced NO secretion in macrophages
In short: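 RAW264.7 macrophages in DMEM with 10% FBS received test samples at several concentrations and were stimulated with 1 μg/ml LPS for 24 h. NO in the supernatant was measured with the Griess reagent at 548 nm, […].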

[3] = tested on: human dermal fibroblasts CCC-ESF-1; assay: Anti-fibrosis activity test: inhibition of proliferation of human dermal fibroblasts CCC-ESF-1 (CCK-8); settings: Fibroblast
In short: as §1

[4] = tested on: human lung fibroblasts HFL1; assay: Anti-fibrosis activity test: inhibition of proliferation of human lung fibroblasts HFL1 (CCK-8); settings: Homo sapiens, HFL1, 48 h
In short: as §1

[5] = tested on: cardiac fibroblast RAT-iCell-C002; assay: Anti-fibrosis activity test: inhibition of proliferation of cardiac fibroblast RAT-iCell-C002 (CCK-8); settings: Cardiac fibroblast, 48 h
In short: as §1

[6] = tested on: human fibrosarcoma cells HT-1080; assay: Anti-fibrosis activity test: inhibition of proliferation of human fibrosarcoma cells HT-1080 (CCK-8); settings: Homo sapiens, HT-1080, 48 h
In short: as §1

BHK-21 cells = assay: Anti-fibrosis activity test: inhibition of BHK-21 cell proliferation (CCK-8); settings: Mesocricetus auratus, BHK-21, 48 h
In short: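 BHK-21 cells seeded at 2×10^4 cells/mL, allowed to adhere 24 h at 37° C, 5% CO2, then exposed to compounds at graded concentrations in triplicate for 48 h. CCK-8 added for 2 h and absorbance read at 450 nm; inhibition rate taken as (1−Ai/Ao)×100% and IC50 fitted.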

[7] = tested on: human hepatic stellate cells LX-2; assay: Anti-fibrosis activity test: inhibition of proliferation of human hepatic stellate cells LX-2 (CCK-8); settings: Homo sapiens, 48 h
In short: as §1

[8] = human embryonic lung fibroblast IMR-90, CCK-8, 48 hours
[9] = human dermal fibroblasts CCC-ESF-1, CCK-8, 48 hours
[10] = human lung fibroblasts HFL1, CCK-8, 48 hours
[11] = cardiac fibroblast RAT-iCell-C002, CCK-8, 48 hours
[12] = human fibrosarcoma cells HT-1080, CCK-8, 48 hours
[13] = CCK-8, 48 hours after administration
[14] = human hepatic stellate cells LX-2, CCK-8, 48 hours
[15] = Homo sapiens, IMR-90 cells, 48 h, CCK-8
[16] = Homo sapiens, CCC-ESF-1 cells, 48 h, CCK-8

IC50 [2] [µM]	IC50 [6, 12] [mM]	IC50 ([6]; HT-1080 cells, 48 h, CCK-8) [mM]	SMILES	IC50 [1, 8] [mM]	IC50 [3, 9] [mM]	IC50 [4, 10] [mM]	IC50 [5, 11] [mM]	IC50 (BHK-21 cells; [13]) [mM]	IC50 [7, 14] [mM]	IC50 [1, 15] [mM]	IC50 [3, 16] [mM]	IC50 ([4]; HFL1 cells, 48 h, CCK-8) [mM]	IC50 ([5]; RAT-iCell-C002 cells, CCK-8) [mM]	IC50 (BHK-21 cells; 48 h, CCK-8) [mM]	IC50 ([7]; LX-2, 48 h, LX-2 cells, CCK-8) [mM]
1 to 10	0.05 to 5		O=C1c2c(nc3c(Cl)cccc3c2OCc2ccccc2Cl)-c2cccn21 [Compound 461b, 5-chloro-9-((2-chlorobenzyl)oxy)-10H-pyrrolizino[1,2-b]quinolin-10-one]	0.05 to 5	0.05 to 5	0.05 to 5	0.05 to 5	0.05 to 5	0.05 to 5						
1 to 10	0.05 to 5		N#Cc1cccc2c(OCc3ccccc3F)c3c(nc12)-c1cccn1C3=O [Compound 456b, 9-((2-fluorobenzyl)oxy)-10-oxo-10H-pyrrolizino[1,2-b]quinoline-5-carbonitrile]	0.05 to 5	0.05 to 5	0.05 to 5	0.05 to 5	0.05 to 5	0.05 to 5						
1 to 10	5 to 20		N#Cc1cccc2c1c(=O)c1c(n2Cc2cccc(F)c2)-c2cccn2C1=O [Compound 463a, 4-(3-Fluorobenzyl)-9,10-dioxo-4,10-dihydro-9H-pyrrolizino[1,2-b]quinoline-8-carbonitrile]	0.05 to 5	0.05 to 5	0.05 to 5	0.05 to 5	0.05 to 5	0.05 to 5						
1 to 10	0.05 to 5		N#Cc1ccc2nc3c(c(Oc4ccc(F)cc4)c2c1)C(=O)n1cccc1-3 [Compound 199b, 9-(4-fluorophenoxy)-10-oxo-10H-pyrrolizino[1,2-b]quinoline-7-carbonitrile]	0.05 to 5	0.05 to 5	0.05 to 5	0.05 to 5	0.05 to 5	0.05 to 5						
0.1 to 1	0.05 to 5		O=C1c2c(nc3cc(N4CCNCC4)c(C(F)(F)F)cc3c2O)-c2cccn21 [Compound 397b, 9-hydroxy-6-(piperazin-1-yl)-7-(trifluoromethyl)-10H-pyrrolizino[1,2-b]quinolin-10-one]	0.05 to 5	0.05 to 5	0.05 to 5	0.05 to 5	0.05 to 5	0.05 to 5						
1 to 10	0.05 to 5		O=C1c2c(nc3cc(Cl)ccc3c2O)-c2cccn21 [Compound 500b, 6-chloro-9-hydroxy-10H-pyrrolizino[1,2-b]quinolin-10-one]	0.05 to 5	0.05 to 5	0.05 to 5	0.05 to 5	0.05 to 5	0.05 to 5						
1 to 10	0.05 to 5		O=C1c2c(nc3cccc(Cl)c3c2OCc2ccc(F)cc2)-c2cccn21 [Compound 474b, 8-chloro-9-((4-fluorobenzyl)oxy)-10H-pyrrolizino[1,2-b]quinolin-10-one]	0.05 to 5	0.05 to 5	0.05 to 5	5 to 20	0.05 to 5	0.05 to 5						
1 to 10	0.05 to 5		O=C1c2c(nc3cccc(O)c3c2O)-c2cccn21 [Compound 470b, 8,9-dihydroxy-10H-pyrrolizino[1,2-b]quinolin-10-one]	0.05 to 5	0.05 to 5	0.05 to 5	0.05 to 5	0.05 to 5	0.05 to 5						
1 to 10	0.05 to 5		O=C(Oc1c2c(nc3cc(N4CCNCC4)c(F)cc13)-c1cccn1C2=O)c1ccco1 [Compound 343b, 7-fluoro-10-oxo-6-(piperazin-1-yl)-10H-pyrrolizino[1,2-b]quinolin-9-ylfuran-2-carboxylate]	0.05 to 5	0.05 to 5	0.05 to 5	0.05 to 5	0.05 to 5	0.05 to 5						

Second part, the compound before the results:

SMILES	IC50 [2] [µM]	IC50 [6, 12] [mM]	IC50 ([6]; HT-1080 cells, 48 h, CCK-8) [mM]	IC50 [1, 8] [mM]	IC50 [3, 9] [mM]	IC50 [4, 10] [mM]	IC50 [5, 11] [mM]	IC50 (BHK-21 cells; [13]) [mM]	IC50 [7, 14] [mM]	IC50 [1, 15] [mM]	IC50 [3, 16] [mM]	IC50 ([4]; HFL1 cells, 48 h, CCK-8) [mM]	IC50 ([5]; RAT-iCell-C002 cells, CCK-8) [mM]	IC50 (BHK-21 cells; 48 h, CCK-8) [mM]	IC50 ([7]; LX-2, 48 h, LX-2 cells, CCK-8) [mM]
O=C1c2c(n(Cc3ccccc3Cl)c3cccc(C(F)(F)F)c3c2=O)-c2cccn21 [Compound 472a, 4-(2-Chlorobenzyl)-8-(trifluoromethyl)-9H-pyrrolizino[1,2-b]quinoline-9,10(4H)-dione]	1 to 10	0.05 to 5		0.05 to 5	0.05 to 5	0.05 to 5	0.05 to 5	< 0.05	0.05 to 5						
N#Cc1cccc2c1c(=O)c1c(n2Cc2ccccc2F)-c2cccn2C1=O [Compound 469a, 4-(2-Fluorobenzyl)-9,10-dioxo-4,10-dihydro-9H-pyrrolizino[1,2-b]quinoline-8-carbonitrile]	0.1 to 1	5 to 20		0.05 to 5	0.05 to 5	0.05 to 5	0.05 to 5	< 0.05	0.05 to 5						
O=C1c2c(nc3cc(N4CCNCC4)c(F)cc3c2OCCO)-c2cccn21 [Compound 348b, 7-fluoro-9-(2-hydroxyethoxy)-6-(piperazin-1-yl)-10H-pyrrolizino[1,2-b]quinolin-10-one]	1 to 10	0.05 to 5		0.05 to 5	0.05 to 5	0.05 to 5	0.05 to 5	0.05 to 5	< 0.05						
O=C1c2c(n(Cc3cccc(Cl)c3)c3c(Cl)cccc3c2=O)-c2cccn21 [Compound 459a, 5-Chloro-4-(3-chlorobenzyl)-9H-pyrrolizino[1,2-b]quinoline-9,10(4H)-dione]	1 to 10	5 to 20		0.05 to 5	0.05 to 5	0.05 to 5	0.05 to 5	0.05 to 5	0.05 to 5						
O=C1c2c(nc3c(Cl)cccc3c2OCc2cccc(Cl)c2)-c2cccn21 [Compound 459b, 5-chloro-9-((3-chlorobenzyl)oxy)-10H-pyrrolizino[1,2-b]quinolin-10-one]	1 to 10	5 to 20		0.05 to 5	0.05 to 5	0.05 to 5	0.05 to 5	0.05 to 5	0.05 to 5						
Cc1cc(C)c2[nH]c3c(c(=O)c2c1)-c1cccn1C3=O [Compound 780a, 7,9-Dimethyl-5H-pyrrolizino[2,1-b]quinoline-5,11(6H)-dione]	10 to 50		0.05 to 5							0.05 to 5	0.05 to 5	0.05 to 5	0.05 to 5	0.05 to 5	0.05 to 5
O=C1c2c(n(Cc3ccc(F)cc3)c3cc(F)ccc3c2=O)-c2cccn21 [Compound 490a, 6-Fluoro-4-(4-fluorobenzyl)-9H-pyrrolizino[1,2-b]quinoline-9,10(4H)-dione]	10 to 50	0.05 to 5		0.05 to 5	0.05 to 5	0.05 to 5	< 0.05	0.05 to 5	0.05 to 5						
O=C1c2c(c(=O)c3ccccc3n2CCCCN2CCNCC2)-c2cccn21 [Compound 794a, 6-(4-(Piperazin-1-yl)butyl)-5H-pyrrolizino[2,1-b]quinoline-5,11(6H)-dione]	1 to 10		0.05 to 5							0.05 to 5	0.05 to 5	0.05 to 5	0.05 to 5	0.05 to 5	0.05 to 5
N#Cc1ccccc1-c1ccc(Cn2c3c(c(=O)c4ccccc42)-c2cccn2C3=O)cc1 [Compound 795a, 4′-((5,11-Dioxo-5,11-dihydro-6H-pyrrolizino[2,1-b]quinolin-6-yl)methyl)-[1,1′-biphenyl]-2-carbonitrile]	1 to 10		0.05 to 5							0.05 to 5	0.05 to 5	0.05 to 5	0.05 to 5	0.05 to 5	0.05 to 5
N#Cc1cccc2c(=O)c3c(n(Cc4ccc(F)cc4)c12)-c1cccn1C3=O [Compound 449a, 4-(4-Fluorobenzyl)-9,10-dioxo-4,10-dihydro-9H-pyrrolizino[1,2-b]quinoline-5-carbonitrile]	1 to 10	0.05 to 5		0.05 to 5	0.05 to 5	0.05 to 5	0.05 to 5	0.05 to 5	0.05 to 5						
CC(C)Oc1c2c(nc3ccc(F)cc13)-c1cccn1C2=O [Compound 108b, 7-fluoro-9-isopropoxy-10H-pyrrolizino[1,2-b]quinolin-10-one]	1 to 10	5 to 20		0.05 to 5	0.05 to 5	0.05 to 5	0.05 to 5	0.05 to 5	0.05 to 5						
